Source: US9062124B2, “GIP-based mixed agonists for treatment of metabolic disorders and obesity” (priority 2008, dated 2015)
Values belong to the compound of their own block, whether it stands above or below them. *1 amine or outer side, *2 acyl side, *3 side chain or, on linkers, in order; H or OH if unused. Where a SMILES comes first, the peptide text is derived from it. Bridges are numbered along the chain shown (N, C = ends). Where no end group is shown, it is not given here. Side-chain parts run from the residue outwards. [ ]: non-standard residue; d: D form. The star is where a group is joined. γGlu = O=C(O)[C@H](CCC(=O)[*:2])N[*:1]; Palmitoyl = CCCCCCCCCCCCCCCC(=O)*; Aib = CC(C)(N)C(=O)O

Assays:
[1] = biological target: T1, glucagon receptor (Homo sapiens, UniProt P47871); experiment: cAMP synthesis functional assay (firefly luciferase reporter in HEK293 cells), glucagon receptor; type: cell-based
T1 construct: expressed in transfected cells; host or cells: HEK293

[2] = biological target: T2, GLP-1 receptor (Homo sapiens, UniProt P43220); experiment: cAMP synthesis functional assay (firefly luciferase reporter in HEK293 cells), GLP-1 receptor; type: cell-based
T2 construct: expressed in transfected cells; host or cells: HEK293

[3] = biological target: T3, GIP receptor (Homo sapiens, UniProt P48546); experiment: cAMP synthesis functional assay (firefly luciferase reporter in HEK293 cells), GIP receptor; type: cell-based
T3 construct: expressed in transfected cells; host or cells: HEK293
T3 sequence (P48546 22-466): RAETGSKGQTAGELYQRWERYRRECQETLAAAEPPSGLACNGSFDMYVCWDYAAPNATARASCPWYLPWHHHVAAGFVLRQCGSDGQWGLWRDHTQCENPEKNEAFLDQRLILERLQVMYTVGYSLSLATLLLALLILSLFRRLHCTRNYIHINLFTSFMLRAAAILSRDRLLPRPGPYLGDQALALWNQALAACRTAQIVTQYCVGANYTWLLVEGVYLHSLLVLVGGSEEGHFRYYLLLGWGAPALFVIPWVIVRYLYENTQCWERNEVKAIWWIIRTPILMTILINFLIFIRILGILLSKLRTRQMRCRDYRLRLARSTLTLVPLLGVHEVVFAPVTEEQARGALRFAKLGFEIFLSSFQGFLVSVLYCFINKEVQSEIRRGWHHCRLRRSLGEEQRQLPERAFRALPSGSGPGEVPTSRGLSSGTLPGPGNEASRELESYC

[4] = Body weight of mice after peptide injection; conditions: Example 41; DIO mice, subcutaneous daily for 7 days, 10 nmol/kg, Day 7
[5] = tested on: glucagon receptor, GLP-1 receptor or GIP receptor; experiment: Agonist profile across receptors assigned from the cAMP reporter assay data; type: cell-based; conditions: assigned from the in vitro EC50 data of Tables 1-4
[6] = Table 4, relative to the native hormone
[7] = Table 1, relative to the native hormone of the indicated receptor
[8] = relative to the standard (Std.) EC50 of the same run

T1 sequence (P47871 26-477): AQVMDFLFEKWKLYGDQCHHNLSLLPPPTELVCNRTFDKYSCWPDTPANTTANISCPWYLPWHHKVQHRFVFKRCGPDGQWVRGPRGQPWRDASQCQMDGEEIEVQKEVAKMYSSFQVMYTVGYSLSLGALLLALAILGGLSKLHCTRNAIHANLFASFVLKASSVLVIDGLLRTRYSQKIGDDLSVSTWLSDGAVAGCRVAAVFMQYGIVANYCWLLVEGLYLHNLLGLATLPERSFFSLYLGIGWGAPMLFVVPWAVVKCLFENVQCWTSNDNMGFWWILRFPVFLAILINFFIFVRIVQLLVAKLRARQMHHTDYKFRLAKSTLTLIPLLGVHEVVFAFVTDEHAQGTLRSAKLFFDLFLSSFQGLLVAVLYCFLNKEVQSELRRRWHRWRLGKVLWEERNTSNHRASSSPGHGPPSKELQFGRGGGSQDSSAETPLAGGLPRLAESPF
T2 sequence (P43220 24-463, species assumed): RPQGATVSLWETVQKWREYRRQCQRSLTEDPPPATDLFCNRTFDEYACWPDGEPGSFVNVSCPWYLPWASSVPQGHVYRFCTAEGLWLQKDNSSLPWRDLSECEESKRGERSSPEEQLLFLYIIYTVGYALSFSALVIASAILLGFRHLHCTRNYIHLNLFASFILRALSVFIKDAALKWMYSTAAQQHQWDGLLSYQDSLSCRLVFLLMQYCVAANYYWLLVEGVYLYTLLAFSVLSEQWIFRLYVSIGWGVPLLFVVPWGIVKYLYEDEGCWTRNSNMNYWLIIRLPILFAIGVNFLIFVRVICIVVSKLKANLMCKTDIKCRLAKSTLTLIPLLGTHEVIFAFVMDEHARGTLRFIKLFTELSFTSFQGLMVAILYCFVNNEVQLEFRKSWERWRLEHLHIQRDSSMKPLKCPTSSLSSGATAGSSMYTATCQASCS

Compound: CCCCCCCCCCCCCCCC(=O)N[C@@H](CCC(=O)N[C@@H](CCC(=O)NCCCC[C@H](NC(=O)[C@H](CO)NC(=O)[C@@H]1CCCN1C(=O)[C@@H]1CCCN1C(=O)[C@@H]1CCCN1C(=O)[C@H](C)NC(=O)CNC(=O)[C@H](CO)NC(=O)[C@H](CO)NC(=O)[C@@H]1CCCN1C(=O)CNC(=O)CNC(=O)[C@H](C)NC(=O)[C@H](CC(C)C)NC(=O)[C@H](CC(C)C)NC(=O)[C@H](Cc1c[nH]c2ccccc12)NC(=O)[C@H](CC(N)=O)NC(=O)[C@@H](NC(=O)[C@H](Cc1ccccc1)NC(=O)[C@H](CCC(=O)O)NC(=O)C(C)(C)NC(=O)[C@H](C)NC(=O)[C@H](C)NC(=O)[C@H](CCC(N)=O)NC(=O)[C@H](CCCCN)NC(=O)[C@H](CC(=O)O)NC(=O)[C@H](CC(C)C)NC(=O)[C@H](Cc1ccc(O)cc1)NC(=O)[C@@H](NC(=O)[C@H](CO)NC(=O)[C@H](Cc1ccc(O)cc1)NC(=O)[C@H](CC(=O)O)NC(=O)[C@H](CO)NC(=O)[C@@H](NC(=O)[C@H](Cc1ccccc1)NC(=O)[C@@H](NC(=O)CNC(=O)[C@H](CCC(N)=O)NC(=O)C(C)(C)NC(=O)[C@@H](N)Cc1ccc(O)cc1)[C@@H](C)O)[C@@H](C)O)[C@@H](C)CC)C(C)C)C(N)=O)C(=O)O)C(=O)O [mt-368] (H-Y[Aib]QGTFTSDYSIYLDKQAA[Aib]EFVNWLLAGGPSSGAPPPSK([γGlu-γGlu-Palmitoyl])-NH2; N-terminus assumed)
EC50 ([1]; Glucagon Receptor EC50, nM, Table 4): 0.0069 nM | Glucagon Receptor relative activity [1, 6]: 491.82% | % Relative activity at the Receptor for Glucagon ([1]; Table 8): 491.82% | GLP-1 Receptor relative activity [2, 6]: 418.93% | % Relative activity at the Receptor for GLP-1 ([2]; Table 8): 418.93% | GIP Receptor relative activity [3, 6]: 296.07% | % Relative activity at the Receptor for GIP ([3]; Table 8): 296.07% | total change in body weight (weight loss, decrease) [4]: ~22%

Compound: mt-384: glucagon analog: Tyr1, AIB2, Lys10(γGlu-γGlu-C16), Ile12, Lys16, Gln17, Ala18, AIB20, Glu21, Asn24, Leu27, Ala28, Gly29, GPSSGAPPPS, amide (Y[Aib]QGTFTSDK([γGlu-γGlu-C16])SIYLDKQAA[Aib]EFVNWLLAGGPSSGAPPPS-NH2)
total change in body weight (weight loss, decrease) [4]: ~21%

Compound: mt-385: same structure as Peptide mt-384 except that Thr at position 7 was changed to an Ile (Y[Aib]QGTFISDK([γGlu-γGlu-C16])SIYLDKQAA[Aib]EFVNWLLAGGPSSGAPPPS-NH2)
total change in body weight (weight loss, decrease) [4]: ~15%

Glucagon Receptor relative activity [1, 7]: 51.26% | GLP-1 Receptor relative activity [2, 7]: 54.39% | GIP Receptor relative activity [3, 7]: 14.79%
Compound: CC[C@H](C)[C@H](NC(=O)[C@H](CO)NC(=O)[C@H](Cc1ccc(O)cc1)NC(=O)[C@H](CC(=O)O)NC(=O)[C@H](CO)NC(=O)[C@@H](NC(=O)[C@H](Cc1ccccc1)NC(=O)[C@@H](NC(=O)CNC(=O)[C@H](CCC(N)=O)NC(=O)C(C)(C)NC(=O)[C@@H](N)Cc1ccc(O)cc1)[C@@H](C)O)[C@@H](C)O)C(=O)N[C@@H](Cc1ccc(O)cc1)C(=O)N[C@@H](CC(C)C)C(=O)N[C@@H](CC(=O)O)C(=O)N[C@H]1CCC(=O)NCCCC[C@@H](C(=O)N[C@@H](CCC(=O)O)C(=O)N[C@@H](Cc2ccccc2)C(=O)N[C@H](C(=O)N[C@@H](CS)C(=O)N[C@@H](Cc2c[nH]c3ccccc23)C(=O)N[C@@H](CC(C)C)C(=O)N[C@@H](CC(C)C)C(=O)N[C@@H](C)C(=O)NCC(N)=O)C(C)C)NC(=O)[C@H](C)NC(=O)[C@H](C)NC(=O)[C@H](CCC(N)=O)NC1=O [mt-169] (H-Y[Aib]QGTFTSDYSIYLDEQAAKEFVCWLLAG-NH2; lactam 16-20; N-terminus assumed)
receptor activity profile (glucagon / GLP-1 / GIP agonism) [5]: exemplary GLP-1/GIP/glucagon triagonist peptides

Glucagon Receptor relative activity [1, 8]: 32.53% | EC50 ([2]; GLP-1 Receptor EC50, cAMP luciferase reporter assay as in Example 16): 0.0303 nM | GLP-1 Receptor relative activity [2, 8]: 39.27% | EC50 ([3]; GIP Receptor EC50, cAMP luciferase reporter assay as in Example 16): 0.0232 nM | GIP Receptor relative activity [3, 8]: 41.38%
Compound: CC[C@H](C)[C@H](NC(=O)[C@H](CO)NC(=O)[C@H](Cc1ccc(O)cc1)NC(=O)[C@H](CC(=O)O)NC(=O)[C@H](CO)NC(=O)[C@@H](NC(=O)[C@H](Cc1ccccc1)NC(=O)[C@@H](NC(=O)CNC(=O)[C@H](CCC(N)=O)NC(=O)C(C)(C)NC(=O)[C@@H](N)Cc1ccc(O)cc1)[C@@H](C)O)[C@@H](C)O)C(=O)N[C@@H](Cc1ccc(O)cc1)C(=O)N[C@@H](CC(C)C)C(=O)N[C@@H](CC(=O)O)C(=O)N[C@@H](CCCCN)C(=O)N[C@@H](CCC(N)=O)C(=O)N[C@@H](C)C(=O)N[C@@H](C)C(=O)NC(C)(C)C(=O)N[C@@H](CCC(=O)O)C(=O)N[C@@H](Cc1ccccc1)C(=O)N[C@H](C(=O)N[C@@H](CS)C(=O)N[C@@H](Cc1c[nH]c2ccccc12)C(=O)N[C@@H](CC(C)C)C(=O)N[C@@H](CC(C)C)C(=O)N[C@@H](C)C(=O)NCC(N)=O)C(C)C [mt-257] (H-Y[Aib]QGTFTSDYSIYLDKQAA[Aib]EFVCWLLAG-NH2; N-terminus assumed)
receptor activity profile (glucagon / GLP-1 / GIP agonism) [5]: exhibited activity at the GIP, GLP-1, and glucagon receptors

Compound: CC[C@H](C)[C@H](NC(=O)[C@H](Cc1ccccc1)NC(=O)[C@H](CCC(=O)O)NC(=O)[C@@H]1CCCCNC(=O)CC[C@H](NC(=O)[C@H](CC(=O)O)NC(=O)[C@H](CC(C)C)NC(=O)[C@H](Cc2ccc(O)cc2)NC(=O)[C@@H](NC(=O)[C@H](CO)NC(=O)[C@H](Cc2ccc(O)cc2)NC(=O)[C@H](CC(=O)O)NC(=O)[C@H](CO)NC(=O)[C@@H](NC(=O)[C@H](Cc2ccccc2)NC(=O)[C@@H](NC(=O)CNC(=O)[C@H](CCC(=O)O)NC(=O)[C@H](CO)NC(=O)[C@@H](N)Cc2ccc(O)cc2)[C@@H](C)O)[C@@H](C)O)[C@@H](C)CC)C(=O)N[C@@H](CCC(N)=O)C(=O)N[C@@H](C)C(=O)N[C@@H](C)C(=O)N1)C(=O)N[C@@H](C)C(=O)N[C@@H](Cc1c[nH]c2ccccc12)C(=O)N[C@@H](CC(C)C)C(=O)N[C@@H](CC(C)C)C(=O)N[C@@H](C)C(=O)NCC(=O)NCC(=O)N1CCC[C@H]1C(=O)N[C@@H](CO)C(=O)N[C@@H](CO)C(=O)NCC(=O)N[C@@H](C)C(=O)N1CCC[C@H]1C(=O)N1CCC[C@H]1C(=O)N1CCC[C@H]1C(=O)N[C@@H](CO)C(N)=O [mt-148] (H-YSEGTFTSDYSIYLDEQAAKEFIAWLLAGGPSSGAPPPS-NH2; lactam 16-20; N-terminus assumed)
Glucagon Receptor relative activity [1, 7]: 2.14% | EC50 ([2]; GLP-1 Receptor EC50, nM, Table 1): 0.098 nM | GLP-1 Receptor relative activity [2, 7]: 36.22% | GIP Receptor relative activity [3, 7]: 65.26% | receptor activity profile (glucagon / GLP-1 / GIP agonism) [5]: exemplary GLP-1/GIP co-agonist peptides
